Patent publication US11299482B2, “Salt and crystal form of modified andrographolide compound and preparation method thereof” (HEILONGJIANG ZHENBAODAO PHARMACEUTICAL CO, LTD, priority 2017, dated 2022)

How the values were obtained:
[1] = Solid physical stability test of Crystal Form A under different temperature, humidity and light conditions; format: physicochemical; conditions: Day 10
Experimental: The vial was sealed with aluminum-foil paper which was punched to generate some small holes to ensure that the sample could fully contact with the ambient air. The 4 samples as prepared were placed under conditions of 25° C./92.5% relative humidity, 60° C., 40° C./75%, and light. The physical stability of the samples on day 10 was examined. […] On day 10, all samples were taken and returned to room temperature. The appearance change of the samples was observed, and the crystal form of the samples was examined by XRPD.

[2] = Solid stability test of Crystal Form A under high temperature and high humidity conditions; format: physicochemical
Experimental: The vial was sealed with aluminum-foil paper which was punched to generate some small holes to ensure that the sample could fully contact with the ambient air. The vial was placed in a chamber with a constant temperature and humidity of 40° C. and 75%. Samples were placed under the above conditions and tested on day 5 and day 10. The test results were compared with the initial test results as measured on day 0.

[3] = test system: IL-6 release from THP-1 cells; test: LPS-induced release of IL-6 from THP-1 cells (CBA); format: cell-based; conditions: Homo sapiens, LPS-stimulated THP-1 cells, 24 hours, read-out: Inhibition rate @10 uM (IL-6)
Experimental: Evaluate the inhibitory effect of the compound on LPS-induced release of IL-6 from THP-1 cells by measuring the level of IL-6 in the cell culture supernatant.
Cell line: THP-1 cell line
4) THP-1 cells were diluted with culture medium to 5×10^5 cells/mL and the diluted cells were added to a 96-well plate (100 μl/well, […]);
1) The compound was dissolved in DMSO to give a solution of 30 mM, and then the solution was 3-fold diluted with DMSO into 4 gradients, which were 30 mM, 10 mM, 3 mM, and 1 mM, respectively. For each gradient, 4 μl of the solution was added to 1 ml of culture medium to form a mixture with a concentration of 120 uM, 40 uM, 12 uM, or 4 uM, respectively. Then, 50 ul of the mixture was added to a well containing cells to a final concentration of 30 uM, 10 uM, 3 uM, or 1 uM, respectively. Dexamethasone was added as a positive drug to a separate well containing cells at a final concentration of 100 nM.
1 mg/ml of a LPS solution was diluted to 800 ng/ml with culture medium, and the diluted solution was added to the cell culture well at 50 ul per well.
The cell culture plate was placed in a 37° C. incubator and incubated for 24 hours. Then, the supernatant was collected, and the level of IL-6 therein was detected by CBA.

[4] = test system: IFN-γ release from mouse spleen cells; test: Release of IFN-γ from anti-CD3 stimulated mouse spleen cells (CBA); format: cell-based; conditions: anti-CD3, 24 hours, read-out: Inhibition rate, IFN-γ (Th1)
Experimental: (§1) Evaluate the inhibitory effect of the compound on the release of cytokines involved in the Th1 pathway such as IFN-γ and IL-2 from mouse spleen cells by measuring the levels of cytokines involved in the Th1 pathway such as IFN-γ and IL-2 in the culture supernatant of mouse spleen cells. Cells: spleen cells isolated from the spleens of normal C57BL/6 mice The anti-mouse CD3 antibody diluted to 5 μg/mL with DPBS was added to a 96-well plate at 100 μL/well. The culture plate was allowed to stand at 4° C. overnight; 1) The mice were sacrificed under aseptic conditions, and the spleens were collected and ground in a filter having a pore size of 70 μm. The obtained cell suspension was collected. 2) The cells were added to the wells coated with the anti-mouse CD3 antibody at 50 μL/well, i.e. 1×10^5 cells/well; and meanwhile, the cells were added to un-coated wells in the same amount, as a negative control; The compound was dissolved in DMSO to give a solution of 100 mM, and then the solution was diluted with DMSO to obtain 3 gradients, which were 30 mM, 10 mM, and 3 mM, respectively. For each gradient, 4 μl of the solution was added to 1 ml of culture medium to form a mixture with a concentration of 120 μM, 40 μM, or 12 μM, respectively. […] Then, the supernatant was collected, and the levels of IFN-γ and IL-2 therein were detected by CBA.

[5] = test system: TGF-β release from mouse peritoneal macrophages; test: Release of TGF-β from mouse peritoneal macrophages (ELISA); format: cell-based; conditions: Peritoneal macrophage, 24 hours, read-out: Inhibition rate, fibrosis factor TGF-β
Experimental: Evaluate the inhibitory effect of the compound on the release of TGF-β from mouse peritoneal macrophages by measuring the level of TGF-β in the culture supernatant of mouse peritoneal macrophages. Cells: Macrophages collected by peritoneal lavage of normal Balb/c mice 7) The macrophages were added to a 48-well plate at 250 μL/well, i.e. 4×10^5 cells/well; 2) A stimulating solution containing TNFα and IL-13 both at a concentration of 80 ng/mL was prepared with serum-free medium, and added to the wells plated with cells at 125 μL/well. Three wells were left without the addition of the stimulating solution and used as a blank control; The compound was dissolved in DMSO to give a solution of 100 mM, and then the solution was diluted with DMSO to obtain 3 gradients, which were 30 mM, 10 mM, and 3 mM, respectively. For each gradient, 4 μl of the solution was added to 1 ml of culture medium to form a mixture with a concentration of 120 μM, 40 μM, or 12 μM, respectively. 125 μl of the mixture was added to a corresponding well to a final concentration of 30 μM, 10 μM, or 3 μM, respectively. Dexamethasone was added as a positive drug to a separate well containing cells at a final concentration of 100 nM. […] Then, the supernatant was collected, and the level of TGF-β therein was detected by ELISA.

[6] = test system: IL-6 release from mouse spleen cells; test: LPS-induced release of IL-6 from mouse spleen cells (CBA); format: cell-based; conditions: 24 hours, read-out: Inhibition rate, IL-6 (Th1)
Excerpt: (§2) Evaluate the inhibitory effect of the compound on LPS-induced release of cytokines involved in the Th1 pathway such as TNF-α and IL-6 from mouse spleen cells by measuring the levels of the cytokines involved in the Th1 pathway such as TNF-α and IL-6 in the culture supernatant of mouse spleen cells. Cells: spleen cells isolated from the spleens of normal C57BL/6 mice 1) The mice were sacrificed under aseptic conditions, and the spleens were collected and ground in a filter having a pore size of 70 μm. The obtained cell suspension was collected. 6) The cells were added to a 96-well plate (100 μL/well, 1×10^5 cells/well); LPS was formulated with culture medium into a 4 μg/ml solution, and then the solution was added to the cell culture well at 50 μl per well. The compound was dissolved in DMSO to give a solution of 100 mM, and then the solution was diluted with DMSO to obtain 3 gradients, which were 30 mM, 10 mM, and 3 mM, respectively. For each gradient, 4 μl of the solution was added to 1 ml of culture medium to form a mixture with a concentration of 120 μM, 40 μM, or 12 μM, respectively. 50 μl of the mixture was added to a corresponding well to a final concentration of 30 μM, 10 μM, or 3 μM, respectively. […] Then, the supernatant was collected, and the levels of TNF-α and IL-6 therein were detected by CBA.

[7] = Study on polymorphism of the compound of Formula (II) (stirring in solvent, XRPD); format: physicochemical; conditions: stirred at 40° C. for 2 days in the dark
Experimental: The compound of Formula (II) was dissolved in a corresponding solvent and stirred at 40° C. for 2 days in the dark. The solution was then centrifuged to obtain a precipitate which was dried and subjected to XRPD detection.

[8] = test system: left unilateral pulmonary fibrosis; test: SD rat model of left unilateral pulmonary fibrosis; format: in vivo
[9] = test system: IL-13 release from mouse spleen cells; test: Release of IL-13 (Th2 pathway) from mouse spleen CD4+ T cells (CBA); format: cell-based; conditions: Th2 induction, 72 hours, read-out: Inhibition rate, IL-13 (Th2)
Experimental: Evaluate the inhibitory effect of the compound on LPS-induced release of cytokines involved in the Th2 pathway such as IL-13 from mouse spleen cells by measuring the levels of cytokines involved in the Th2 pathway such as IL-13 in the culture supernatant of mouse spleen cells. Cells: CD4+ cells isolated and sorted from the spleens of normal C57BL/6 mice The anti-mouse CD3 antibody diluted to 5 μg/mL with DPBS was added to a 96-well plate at 100 μL/well. The culture plate was allowed to stand at 4° C. overnight; 6) CD4+ T cells were isolated by using the Mouse CD4+ T Cell Isolation Kit, and the isolated cells were adjusted to a concentration of […]; 8) The isolated CD4+ T cells were added to the wells coated with the anti-CD3 antibody at 50 μL/well, i.e. 1×10^5 cells/well; and meanwhile, the CD4+ T cells were added to un-coated wells in the same amount, as a negative control; The mouse anti-IFNγ antibody and anti-IL-12 antibody were simultaneously added to the culture medium both at a concentration of 40 μg/mL, and mouse IL-4 was added thereto at a concentration of 40 ng/mL. An induction solution was prepared and added to the wells that had been plated with cells and coated with anti-CD3 antibody at 50 μL/well. […] Then, the supernatant was collected, and the level of IL-13 therein was detected by CBA.

[10] = test system: TNF-α release from mouse spleen cells; test: LPS-induced release of TNF-α from mouse spleen cells (CBA); format: cell-based; conditions: 24 hours, read-out: Inhibition rate, TNF-α (Th1)
Excerpt: as §2

[11] = test system: IL-2 release from mouse spleen cells; test: Release of IL-2 from anti-CD3 stimulated mouse spleen cells (CBA); format: cell-based; conditions: anti-CD3, 24 hours, read-out: Inhibition rate, IL-2 (Th1)
Experimental: as §1

[12] = 25° C./92.5% relative humidity (open)
[13] = 40° C./75% relative humidity (open)
[14] = stored at −20° C. in a confined space (control sample)
[15] = 40° C. and 75% humidity, open, day 5
[16] = 40° C. and 75% humidity, open, day 10

In the case of `C=C1CCC2[C@]3(C)CO[C@@H](C4CCCC4)O[C@@H]3CC[C@@]2(C)[C@@H]1CCOC1CCN(C)CC1.O=C(O)CC(O)(CC(=O)O)C(=O)O` (some centres unmarked) [Crystal Form A], the Characters [1, 12] is reported as “Off-white powder”, the Crystal form [1, 12] is reported as “Crystal Form A” and the Characters [1, 13] is reported as “Off-white powder”. The Crystal form [1, 13] was “Crystal Form A”, the Characters ([1]; 60° C. (open)) was “Off-white powder” and the Crystal form ([1]; 60° C. (open)) was “Crystal Form A”. The Characters ([1]; light) was “Off-white powder”, the Crystal form ([1]; light) was “Crystal Form A” and the Characters [1, 14] was “Off-white powder”. The Crystal form [1, 14] was “Crystal Form A”, the Appearance [2, 15] was “Off-white powder” and the Crystal form [2, 15] was “Crystal Form A”. For the same compound, the “Purity (%)” value [2, 15] was 98.37%, the “Total impurities (%)” value [2, 15] was 1.61% and the Appearance [2, 16] was “Off-white powder”. For the same compound, the Crystal form [2, 16] was “Crystal Form A”, the “Purity (%)” value [2, 16] was 98.45% and the “Total impurities (%)” value [2, 16] was 1.55%. The Appearance ([2]; day 0 (initial)) was “Off-white powder”, the Crystal form ([2]; day 0 (initial)) was “Crystal Form A” and the “Purity (%)” value ([2]; day 0 (initial)) was 98.51%. For the same compound, the “Total impurities (%)” value ([2]; day 0 (initial)) was 1.49%.
`C=C1CCC2[C@]3(C)CO[C@@H](C4CCCC4)O[C@@H]3CC[C@@]2(C)[C@@H]1CCOC1CCN(C)CC1` (some centres unmarked) [Compound h] gave an inhibition at 10 µM [3] of over 60%.
`C=C1CCC2[C@]3(C)CO[C@@H](C4CCCC4)O[C@@H]3CC[C@@]2(C)[C@@H]1CCOC1CCN(C)CC1.O=C(O)CC(O)(CC(=O)O)C(=O)O` (stereo in doubt) [compound of Formula (II)] showed an inhibition at 10 µM [4] of 85.3%, an inhibition at 10 µM [5] of 51% and an inhibition at 10 µM [6] of 48%. For the same compound, the Crystal form ([7]; Ethanol) was “Crystal Form A”, the Crystal form ([7]; Methanol) was “Crystal Form A” and the “Inhibitory effect on IPF” value [8] was “significant inhibitory effect”. It also gave an inhibition at 10 µM [9] of 99.9%, an inhibition at 30 µM [10] of 40.3% and an inhibition at 10 µM [11] of 78.2%.
